Results from patent publication US20250000829A1, “PHENYLBUTYRATE COMPOSITIONS FOR TREATING DEVELOPMENTAL AND EPILEPTIC ENCEPHALOPATHY (“DEE”), AND STXBP1 DISORDERS” (priority 2023, published 2025).
“And” between values parts separate entries of the source, which are not always exact repeats. Identical values can stand only once. Like-named read-outs stand apart in the source and are kept apart here.

Key:
[1] = non-human primates; via the monocarboxylate transporter 1 mechanism; cited from earlier work
[2] = tested on: children with STXBP1-E and SLC6A1-NDD; assay: Open-label pilot study: quality of life assessed with the PEDSQL epilepsy module; type: in vivo, human; conditions: assessed at 10 weeks of drug exposure
Description: (§1) After institutional review board approval, 20 participants were enrolled in a single treatment group, multiple-dose, open-label, pilot study to evaluate the safety, tolerability, pharmacokinetics (PK) and pharmacodynamics (PD) of glycerol phenylbutyrate in children with STXBP1-E and SLC6A1-NDD.
Quality of life was assessed using the Pediatric Quality of Life Inventory (PEDSQL) epilepsy module, which is a validated scale about quality of life for children with epilepsy, and the Pediatric Epilepsy Learning Healthcare System Quality of Life survey (PELHS QOL 2), which is a set of two questions that ask how seizures and medication side effects alter usual routines. The PEDSQL is provided at eprovide.mapi-trust.org/instruments/pediatric-quality-of-life-inventory-epilepsy-module.
(§2) Visit 5 was a pre-treatment baseline visit conducted at least 28 days after visit 1 and the day before treatment initiation. This visit was conducted in person while the patient was admitted to hospital. […]
(§3) Visit 14 was a treatment evaluation visit and was conducted in person at least 40 days after the first day of medication administration. […] The participant was evaluated by a developmental pediatrician, neuropsychologist, or psychologist, in the same fashion as during visit 5.
(§4) Response to the medication was measured qualitatively and quantitatively using the following measures. […]

[3] = mice; via the monocarboxylate transporter 1 mechanism; cited from earlier work
[4] = tested on: children with STXBP1-E and SLC6A1-NDD; assay: Open-label pilot study: communication assessed with the ORCA; type: in vivo, human; conditions: assessed at 10 weeks of drug exposure
Description: as §1
Development was assessed using several pre-specified measures (Vineland, ORCA) as well as an assessment by a pediatric development expert (i.e. a physician, neuropsychologist, or psychologist with expertise in administering and interpreting developmental assessments). During the assessment, several additional validated measures may have been used. These may have included (but were not limited to) the Bayley Scales of Infant and Toddler Development, the Childhood Autism Rating Scale, the Child Behavior Checklist, the Behavior Rating Inventory of Executive Function, the Infant Toddler Social Emotional Assessment, the DAYC (Developmental Assessment of Young Children), or other similar validated scales. […]
as §3, §4

[5] = based on Lexicomp; cited from earlier work
[6] = tested on: children with STXBP1-E and SLC6A1-NDD; assay: Open-label pilot study of glycerol phenylbutyrate: seizure response (seizure diary); type: in vivo, human; conditions: of 20 participants
Description: as §1
Participants in the study were patients aged 2 months to 17 years with STXBP1-E and seizures or with SLC6A1-NDD. People with SLC6A1 typically experience seizures later in life (typically middle of 1st decade) and so seizures were not an entry criterion for participants with SLC6A1. During enrollment preference was given to patients between 2 months and 3 years old (target of 5 patients) and patients between 4 and 10 years old (target 5 patients). This is because younger patients up to 3 years old may be more sensitive to possible pharmacodynamics and efficacy endpoints and, to a lesser extent, the same may be true for patients 4 to 10 years, as compared to older patients. The study enrolled 11 patients, including 4 children between 2 months and 2 years.
A daily dose of 11.2 mL/m^2, equivalent to 12.4 g/m^2, was given, enterally (by mouth or, if necessary, by nasogastric or gastrostomy tube). The daily dose was divided into three equally divided doses, with each dose given with food.
FIG. 3 is a schedule of assessments for measuring the effectiveness of glycerol phenylbutyrate to treat patients with STXBP1-E and SLC6A1-NDD. […]
Response to the medication was measured qualitatively and quantitatively using the following measures. Quantitative and qualitative measures included the change in the number of and percent change in the seizures per week, as recorded in the seizure diary, comparing weeks 1-4 with weeks 5-10; change and percent change in number of seizures per hour, as recorded by video EEG, comparing visit 5 (day before medication) to visit 6 (first day of medication), and comparing visit 5 to visit 14 (40 days after the first day of medication); and changes in […] in EEG data, comparing visit 5 to visit 6 and visit 5 to visit 14. Additional measures comparing visit 5 and visit 14 included quality of life assessment, as quantified by the change in PEDSQL epilepsy module score, and by the trajectory and overall change in the PELHS QOL-2 score; qualitative analysis of the participant's development and behavior; change in developmental assessment scores; ataxia as measured by changes in SARA scale score; and sleep as measured by CSHQ score. Medication dosing adherence was also assessed, quantified as the percentage of days in which the participant received the full prescribed dose, and considering obstacles to adherence qualitatively as reported by caregivers. […]

[7] = Blood/plasma and CSF levels of phenylbutyrate after glycerol phenylbutyrate dosing; type: in vivo, human; conditions: doses of 12 g/m^2/day, extrapolated from 3 g/m^2/day
Description: Dosing was sufficient to lead to therapeutic concentrations in the range of 0.25 mM to 1 mM in serum and CSF, based on the following observations. […] CSF levels are approximately ½ to ¼ of serum levels, based on data from non-human primates, thus CSF levels of 0.25 to 0.5 mM were assumed.
The secondary endpoints were measuring plasma concentration of phenylbutyrate and active metabolites. Plasma levels of phenylbutyrate peaked at 2 hours after an oral dose. Thus investigators aimed to obtain levels within 90-150 minutes after the oral dose.

[8] = tested on: child with SLC6A1; assay: Open-label pilot study: EEG before and after treatment; type: in vivo, human; conditions: 10 second EEG, same child with SLC6A1, six weeks after treatment vs prior to treatment (brief absence seizure)
Description: Investigators noted EEG changes, including standard clinical interpretation of the EEG and video (particularly for abnormal movements).
Visit 5 was a pre-treatment baseline visit conducted at least 28 days after visit 1 and the day before treatment initiation. This visit was conducted in person while the patient was admitted to hospital. During this visit, the investigator reviewed the participant's seizure diary and medical history. The investigator administered several assessments, including the PEDSQL Epilepsy Module, the PELHS QOL 2, the SARA Scale, the CARS, the CSHQ, and the ORCA. The participant was given a physical exam and had urine and blood samples collected for a series of laboratory tests. Laboratory tests included routine laboratory tests and specialized laboratory tests. Routine laboratory tests that were conducted included a complete blood count (CBC), chemistry panels, liver function tests (LFTs), urinalysis, amylase test, lipase test, anti-seizure medication (ASM) levels test, and electrocardiogram (EKG). […]
Visit 14 was a treatment evaluation visit and was conducted in person at least 40 days after the first day of medication administration. […] The participant was evaluated by a developmental pediatrician, neuropsychologist, or psychologist, in the same fashion as during visit 5. […]

[9] = tested on: children with STXBP1-E and SLC6A1-NDD; assay: Open-label pilot study: sleep assessed with the Child's Sleep Habits Questionnaire (CSHQ); type: in vivo, human; conditions: assessed at 10 weeks of drug exposure
Description: as §1
as §2, with “hospital. During this visit, the investigator reviewed the participant's seizure diary and medical history.” for “hospital.”
as §3
Response to the medication was measured qualitatively and quantitatively using the following measures. […] Additional measures comparing visit 5 and visit 14 included quality of life assessment, as quantified by the change in PEDSQL epilepsy module score, and by the trajectory and overall change in the PELHS QOL-2 score; qualitative analysis of the participant's development and behavior; change in developmental assessment scores; ataxia as measured by changes in SARA scale score; and sleep as measured by CSHQ score. […]

[10] = cited from earlier work
[11] = daily dose 11.2 mL/m^2 enterally

Q: For O=C(CCCc1ccccc1)OCC(COC(=O)CCCc1ccccc1)OC(=O)CCCc1ccccc1 [glycerol phenylbutyrate], which “Crossing of the blood-brain barrier” value [1] is on record?
A: crosses the blood-brain barrier

Q: And the “Participants with improved quality of life, as assessed with the PEDSQL” value [2]?
A: 4 of 11

Q: What about the “Crossing of the blood-brain barrier” value [3] of the same molecule?
A: crosses the blood-brain barrier

Q: And the “Participants with improved communication, as assessed with the ORCA” value [4]?
A: 8 of 11

Q: And the “Side effect frequency: abdominal pain” value [5]?
A: 7%

Q: And the “Side effect frequency: decreased appetite” value [5]?
A: 7%

Q: And the “Side effect frequency: diarrhea” value [5]?
A: 16%

Q: And the “Side effect frequency: dyspepsia” value [5]?
A: 5%

Q: What about the “Side effect frequency: fatigue” value [5] of the same molecule?
A: 7%

Q: What about the “Side effect frequency: flatulence” value [5] of the same molecule?
A: 14%

Q: What about the “Side effect frequency: headache” value [5] of the same molecule?
A: 14%

Q: What about the “Side effect frequency: nausea” value [5] of the same molecule?
A: 2%

Q: What about the “Side effect frequency: vomiting” value [5] of the same molecule?
A: 7%

Q: What about the “Responders (50% or more reduction in seizures clinically associated with the use of glycerol phenylbutyrate)” value ([6]; daily dose 11.2 mL/m^2 (12.4 g/m^2) enterally in three divided doses) of the same molecule?
A: 11 participants

Q: And the “Indeterminant response (improvement, but less than 50% reduction in seizures or not clinically associated with use)” value [6, 11]?
A: 3 participants

Q: And the Non-responders [6, 11]?
A: 2 participants

Q: What about the “Participants that had no seizures” value [6, 11] of the same molecule?
A: 4 participants

Q: And the Concentration in serum [7]?
A: ~1000 µM

Q: And the “Seizure activity in EEG after treatment” value [8]?
A: did not show seizure activity

Q: What about the “Participants with improved sleep, as assessed with the CSHQ” value [9] of the same molecule?
A: 5 of 12

Q: And the “Blood levels of phenylbutyric acid” value ([10]; doses of 3 g/m^2/day of glycerol phenylbutyrate, adults)?
A: 38 μg/mL and 0.23 mM

Q: For phenylbutyric acid [phenylbutyrate], which “Time of peak plasma levels of phenylbutyrate” value ([10]; after an oral dose) is on record?
A: 2 h
